Target: T1, murine SR-BI (Mus musculus, UniProt Q61009)
T1 construct: expressed in transfected cells; host or cells: ldlA-7 (LDL receptor deficient Chinese hamster ovary cells)
T1 sequence (Q61009 1-509): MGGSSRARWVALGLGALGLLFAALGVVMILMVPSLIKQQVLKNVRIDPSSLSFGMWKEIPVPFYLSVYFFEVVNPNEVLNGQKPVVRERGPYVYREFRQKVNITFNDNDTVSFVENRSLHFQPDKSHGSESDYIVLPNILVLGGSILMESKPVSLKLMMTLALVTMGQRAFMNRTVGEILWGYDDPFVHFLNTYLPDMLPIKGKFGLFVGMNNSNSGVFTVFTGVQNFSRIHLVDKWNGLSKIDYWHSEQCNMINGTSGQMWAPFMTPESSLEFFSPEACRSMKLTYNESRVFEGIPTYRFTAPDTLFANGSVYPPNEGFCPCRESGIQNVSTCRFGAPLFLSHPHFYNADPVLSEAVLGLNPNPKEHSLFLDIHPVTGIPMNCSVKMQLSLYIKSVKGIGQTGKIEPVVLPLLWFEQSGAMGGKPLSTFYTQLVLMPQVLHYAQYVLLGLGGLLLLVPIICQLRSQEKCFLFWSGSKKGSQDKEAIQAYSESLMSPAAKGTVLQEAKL
Experiment: Uptake of DiI from DiI-HDL by ldlA[mSR-BI] cells (high throughput screen and concentration dependence)
Format: cell-based

[1] = DiI uptake from DiI-HDL, compounds at nominal 10 micromolar, ldlA[mSR-BI] cells

Compound | ENDOHDL Test 1 | ENDOHDL Test 2 | ENDOHDL Test 1 [1] | ENDOHDL Test 2 [1]
CCS(=O)(=O)C(=C(Nc1ccc(OC)cc1)Nc1ccc(OC)cc1)S(=O)(=O)CC [MIT 9952-220] | 1.13 | 1.25 |  | 
Brc1ccc2c(c1)OCCSCCOCCOCCSCCO2 [MIT 9952-244] | 0.56 | 0.54 |  | 
O=C(N/N=C/c1ccc(O)cc1)C1CC1(c1ccccc1)c1ccccc1 (centres unmarked) [MIT 9952-87] | 0.67 | 0.67 |  | 
O=[N+]([O-])c1cccc(-c2ccc(C(=S)N3CCCCC3)o2)c1 [MIT 9952-282] |  |  | 0.49 | 0.5
O=C(Nc1ccc(Oc2ccc(Cl)c3cccnc23)c(Cl)c1)c1ccc([N+](=O)[O-])cc1 [MIT 9952-172] | 0.55 | 0.56 |  | 
Nc1c(C(=O)c2ccc(Br)cc2)sc2nc(-c3ccccc3)c3c(c12)CCCC3 [MIT 9952-221] | 0.62 | 0.59 |  | 
C=C(N/N=C(\C)c1ccccc1C(=O)O)c1ccccc1 [MIT 9952-56] | 1.26 | 1.26 |  | 
O=C(Nc1ccc2c(c1)OCO2)c1ccc2ccccc2c1 [MIT 9952-280] |  |  | 0.75 | 0.67
CCCCN1CCC(Cl)(c2ccccc2)C(C(=O)c2ccccc2)C1 (centres unmarked) [MIT 9952-26] | 1.28 | 1.32 |  | 
COc1ccc(COCC(Cl)CN2CCCCC2)cc1OC.Cl (centres unmarked) [MIT 9952-40] | 1.28 | 1.23 |  | 
CCOC(=O)c1c(C)n(-c2ccccc2)c2ccc(NS(=O)(=O)c3ccccc3)cc12 [MIT 9952-71] | 0.62 | 0.55 |  | 
CCOCc1c(C)cc(C)c(/C=N/Nc2ccc([N+](=O)[O-])cc2)c1C [MIT 9952-174] | 0.6 | 0.62 |  | 
CCCCC1(OC(=O)Nc2ccc(Cl)cc2)CCCCC1 [MIT 9952-196] | 0.63 | 0.6 |  | 
O=C(Nc1cccc(Cl)c1)N1CCN(c2ccc([N+](=O)[O-])cc2)CC1 [MIT 9952-256] | 0.65 | 0.92 |  | 
Cc1ccc2c(c1Br)/C(=N/NC(=O)Nc1ccccc1)C(=O)N2 [MIT 9952-130] | 0.62 | 0.65 |  | 
Cc1cccc(/C=N/Nc2nc(C)nc(C)n2)c1 [MIT 9952-270] | 0.66 | 0.66 |  | 
CC(C)(C)c1ccc(C(=O)Nc2ccccc2C(=O)Cl)cc1 [MIT 9952-47] | 1.18 | 1.37 |  | 
C/C(=N\Nc1ccc([N+](=O)[O-])cc1)c1ccc([N+](=O)[O-])cc1 [MIT 9952-245] | 0.54 | 0.64 |  | 
CCOC1=C(C(C)=O)NC(c2ccc(OC)cc2)C(=S)N1 (centres unmarked) [MIT 9952-278] | 0.71 | 0.67 |  | 
COc1ccc([N+](=O)[O-])cc1NC(=O)c1ccccc1 [MIT 9952-338] |  |  | 0.61 | 0.6

Compound | ENDOHDL Test 1 | ENDOHDL Test 2 | ENDOHDL Test 1 [1] | ENDOHDL Test 2 [1]
O=C(Nc1cccc(NC(=O)c2ccccc2Cl)c1)c1cccc([N+](=O)[O-])c1 [MIT 9952-337] |  |  | 0.6 | 0.57
COc1ccccc1NC(=O)Nc1ccc2ccccc2c1 [MIT 9952-149] | 0.62 | 0.6 |  | 
CCn1c(COC)c(-c2ccccc2)c2cc([N+](=O)[O-])ccc21 [MIT 9952-143] | 0.66 | 0.65 |  | 
CN(CC#CC(O)(c1ccccc1)c1ccccc1)C1CCCCC1 [MIT 9952-72] | 1.07 | 1.12 |  | 
CC(=O)c1c(C)n(-c2ccccc2)c2ccc(O)cc12 [MIT 9952-119] | 0.62 | 0.64 |  | 
COc1ccc(N2C(=O)CC(N3CCCCC3)C2=O)cc1 (centres unmarked) [MIT 9952-16] | 1.25 | 1.26 |  | 
CCCCOCCC1CCC/C1=N\NC(N)=S (centres unmarked) [MIT 9952-249] | 0.7 | 0.57 |  | 
Cc1ccsc1/C=N/NC(=O)c1cccc([N+](=O)[O-])c1 [MIT 9952-228] | 0.46 | 0.63 |  | 
O=C1CC(N2CCOCC2)C(=O)N1c1ccc(Br)cc1 (centres unmarked) [MIT 9952-3] | 1.32 | 1.17 |  | 
CCNc1ccc(N)c(C)c1C.O=S(=O)(O)O [MIT 9952-74] | 0.71 | 0.69 |  | 
O=C(/C=C/c1cccc([N+](=O)[O-])c1)Nc1cccc(C(F)(F)F)c1 [MIT 9952-290] |  |  | 0.52 | 0.56
CCN(CC(O)COc1ccccc1C(C)=O)S(=O)(=O)O.[Na+] (centres unmarked) [MIT 9952-62] | 1.28 | 1.24 |  | 
CCn1c(C)c(-c2ccccc2)c2cc([N+](=O)[O-])ccc21 [MIT 9952-257] | 0.66 | 0.61 |  | 
O=C(NC(NC(=S)Nc1cc(C(F)(F)F)ccc1Cl)C(Cl)(Cl)Cl)c1ccco1 (centres unmarked) [MIT 9952-90] | 0.62 | 0.61 |  | 
O=C(O)CSC1CCCC/C1=N\Nc1ccc([N+](=O)[O-])cc1[N+](=O)[O-] (centres unmarked) [MIT 9952-84] | 0.74 | 0.66 |  | 
O=C(/C=C/c1cccc([N+](=O)[O-])c1)Nc1cccc(Cl)c1 [MIT 9952-291] |  |  | 0.55 | 0.51
CCOC(=O)c1c(NC(=O)c2ccccc2)sc(NC(=O)c2ccccc2)c1C(=O)OCC [MIT 9952-215] | 0.57 | 0.53 |  | 
COc1ccc([N+](=O)[O-])cc1NC(=S)NC(NC(=O)C(c1ccccc1)c1ccccc1)C(Cl)(Cl)Cl (centres unmarked) [MIT 9952-140] | 0.52 | 0.58 |  | 
CC1=C(C(=O)OCc2ccccc2)C(c2ccc(N(C)C)cc2)NC(=O)N1 (centres unmarked) [MIT 9952-163] | 0.6 | 0.69 |  | 
CN(C)c1ccc(C(Cl)(c2ccc(N(C)C)cc2)C2CN3CCC2CC3)cc1.Cl (centres unmarked) [MIT 9952-137] | 1.32 | 1.25 |  | 

Continued, values first:

ENDOHDL Test 1 | ENDOHDL Test 2 | ENDOHDL Test 1 [1] | ENDOHDL Test 2 [1] | Compound
0.34 | 0.52 |  |  | Cc1cc(C(=O)N/C=C\c2c(Cl)ccc3ccccc23)[nH]n1 [MIT 9952-38]
1.17 | 1.33 |  |  | O=C(Cl)c1ccccc1NS(=O)(=O)/C=C/c1ccccc1 [MIT 9952-4]
 |  | 0.64 | 0.58 | CCN1/C(=C\C(=O)c2ccc(C)cc2)Sc2ccccc21 [MIT 9952-295]
1.29 | 1.24 |  |  | O=C(/C=C/C=C(Cl)Cl)c1ccc2c(c1)OCO2 [MIT 9952-65]
0.56 | 0.67 |  |  | CC(F)(F)c1cccc(NC(=O)c2sc(-c3ccccc3)nc2-c2ccc([N+](=O)[O-])cc2)c1 [MIT 9952-166]
0.51 | 1.0 |  |  | Cl.c1ccc(CCNC2CCCc3c2[nH]c2ccc(C4CCCCC4)cc32)cc1 (centres unmarked) [MIT 9952-258]
0.73 | 0.7 |  |  | CO/C(=N\C(NC(=S)Nc1ccccc1)C(Cl)(Cl)Cl)c1ccc(C)cc1 (centres unmarked) [MIT 9952-203]
0.66 | 0.71 |  |  | COc1ccc(/C(C)=N/NC(=O)C2CC2(c2ccccc2)c2ccccc2)c(OC)c1 (centres unmarked) [MIT 9952-93]
0.57 | 1.11 |  |  | CCN1/C(=C/c2sc3ccccc3[n+]2CC)Sc2ccccc21.Cc1ccc(S(=O)(=O)[O-])cc1 [MIT 9952-267]
0.57 | 0.49 |  |  | COc1ccc2c(c1)c(C(C)=O)c(C)n2-c1ccccc1 [MIT 9952-212]
0.69 | 0.67 |  |  | Cc1ccc(NC(=S)NC(NC(=O)c2ccccc2Cl)C(Cl)(Cl)Cl)cc1 (centres unmarked) [MIT 9952-201]
0.59 | 0.55 |  |  | COc1ccc(C(=O)Nc2cccc(C(F)(F)F)c2)cc1OC [MIT 9952-259]
1.96 | 1.61 |  |  | Nc1nc(N)nc(-c2cccc(-c3nc(N)nc(N)n3)c2)n1 [MIT 9952-173]
0.7 | 0.63 |  |  | CCn1c(/C=C/C=C2\SCCN2C)[n+](CC)c2cc(Cl)ccc21 [MIT 9952-92]
 |  | 0.46 | 0.63 | Cc1ccsc1/C=N/NC(=O)c1cccc([N+](=O)[O-])c1 [MIT 9952-323]
0.45 | 0.56 |  |  | CC(=O)C1=C(C)NC(=S)NC1c1ccco1 (centres unmarked) [MIT 9952-264]
0.65 | 0.6 |  |  | CC(C)c1ccc(NC(=O)/C=C/c2cccc([N+](=O)[O-])c2)cc1 [MIT 9952-274]
1.25 | 1.26 |  |  | C/C(=C\C(=O)NCCc1c[nH]c2ccccc12)C(=O)O [MIT 9952-76]
1.18 | 1.32 |  |  | Cc1cc(C)c(/C=N/N=C/c2c(C)cc(C)cc2C)c(C)c1 [MIT 9952-69]
0.59 | 0.65 |  |  | Cc1[nH]c2ccccc2c1-c1c2ccccc2nc2ccccc12 [MIT 9952-183]
0.55 | 0.54 |  |  | O=C(CSC1=NCCN1)Nc1ccccc1 [MIT 9952-67]

— patent US20040171073A1, “Compounds for modulation of cholesterol transport” (Massachusetts Institute of Technology, priority 2002, published 2004)
